Tests used:
Type in all cases: in vivo
Abutilon theophrasti [1] = experiment: Pre-emergence herbicidal action against ABUTH; conditions: visual score after 3 weeks vs untreated controls
How it was run: (§1)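 Sandy loam pots, seeds covered with soil, then surface-treated with WP or EC formulations at 600–800 l/ha water plus 0.2% wetting agent. Greenhouse, 3 weeks. Percent damage vs untreated controls.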

Alopecurus myosuroides [2] = experiment: Pre-emergence herbicidal action against ALOMY; conditions: visual score after 3 weeks vs untreated controls
How it was run: as §1

Amaranthus retroflexus [3] = experiment: Pre-emergence herbicidal action against AMARE; conditions: visual score after 3 weeks vs untreated controls
How it was run: as §1

Avena fatua [4] = experiment: Pre-emergence herbicidal action against AVEFA; conditions: visual score after 3 weeks vs untreated controls
How it was run: as §1

Cyperus esculentus [5] = experiment: Pre-emergence herbicidal action against CYPES; conditions: visual score after 3 weeks vs untreated controls
How it was run: as §1

Echinochloa crus-galli [6] = experiment: Pre-emergence herbicidal action against ECHCG; conditions: 320 g/ha; visual score after 3 weeks vs untreated controls
How it was run: as §1

Matricaria inodora [7] = experiment: Pre-emergence herbicidal action against MATIN; conditions: visual score after 3 weeks vs untreated controls
How it was run: as §1

Pharbitis purpurea [8] = experiment: Pre-emergence herbicidal action against PHBPU; conditions: 320 g/ha; visual score after 3 weeks vs untreated controls
How it was run: as §1

Hordeum murinum = experiment: Pre-emergence herbicidal action against HORMU; conditions: visual score after 3 weeks vs untreated controls
How it was run: as §1

Lolium rigidum [9] = experiment: Pre-emergence herbicidal action against LOLRI
How it was run: as §1

Polygonum convolvulus [10] = experiment: Pre-emergence herbicidal action against POLCO
How it was run: as §1

Setaria viridis [11] = experiment: Pre-emergence herbicidal action against SETVI
How it was run: as §1

Stellaria media [12] = experiment: Pre-emergence herbicidal action against STEME
How it was run: as §1

Veronica persica [13] = experiment: Pre-emergence herbicidal action against VERPE; conditions: 320 g/ha
How it was run: as §1

Viola tricolor [14] = experiment: Pre-emergence herbicidal action against VIOTR
How it was run: as §1

Abutilon theophrasti [15] = experiment: Post-emergence herbicidal action against ABUTH
How it was run: (§2)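 Visual % rating (0% = as untreated, 100% = dead) ~3 wk after spraying one-leaf-stage plants grown in sandy loam; WP/EC in water at 600–800 l/ha, 0.2% wetting agent.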

Alopecurus myosuroides [16] = experiment: Post-emergence herbicidal action against ALOMY
How it was run: as §2

Amaranthus retroflexus [17] = experiment: Post-emergence herbicidal action against AMARE; conditions: visual assessment about 3 weeks after treatment
How it was run: as §2

Avena fatua [18] = experiment: Post-emergence herbicidal action against AVEFA; conditions: visual assessment about 3 weeks after treatment
How it was run: as §2

Cyperus esculentus [19] = experiment: Post-emergence herbicidal action against CYPES; conditions: 80 g/ha, visual assessment about 3 weeks after treatment
Description: (§3) Seeds of monocotyledonous and dicotyledonous weed and crop plants are laid out in sandy loam soil in wood-fiber pots, covered with soil and cultivated in a greenhouse under good growth conditions. 2 to 3 weeks after sowing, the test plants are treated at the one-leaf stage. The compounds of the invention, formulated in the form of wettable powders (WP) or as emulsion concentrates (EC), are then sprayed onto the green parts of the plants in the form of an aqueous suspension or emulsion at a water application rate equivalent to 600 to 800 l/ha, with addition of 0.2% wetting agent. After the test plants have been left to stand in the greenhouse under optimal growth conditions for about 3 weeks, the action of the preparations is assessed visually in comparison to untreated controls (herbicidal action in percent (%): 100% activity=the plants have died, 0% activity=like control plants). […] The tables below illustrate, in an illustrative manner, the post-emergence herbicidal action of the compounds of the invention, the herbicidal activity being stated in percent.

Echinochloa crus-galli [20] = experiment: Post-emergence herbicidal action against ECHCG; conditions: visual assessment about 3 weeks after treatment
How it was run: as §2

Matricaria inodora [21] = experiment: Post-emergence herbicidal action against MATIN; conditions: 80 g/ha, visual assessment about 3 weeks after treatment
How it was run: as §2

Pharbitis purpurea [22] = experiment: Post-emergence herbicidal action against PHBPU; conditions: visual assessment about 3 weeks after treatment
How it was run: as §2

Lolium rigidum [23] = experiment: Post-emergence herbicidal action against LOLRI
Description: as §3

Polygonum convolvulus [24] = experiment: Post-emergence herbicidal action against POLCO; conditions: visual assessment about 3 weeks after treatment
How it was run: as §2

Setaria viridis [25] = experiment: Post-emergence herbicidal action against SETVI; conditions: visual assessment about 3 weeks after treatment
How it was run: as §2

Stellaria media [26] = experiment: Post-emergence herbicidal action against STEME; conditions: visual assessment about 3 weeks after treatment
How it was run: as §2

Veronica persica [27] = experiment: Post-emergence herbicidal action against VERPE; conditions: visual assessment about 3 weeks after treatment
How it was run: as §2

Viola tricolor [28] = experiment: Post-emergence herbicidal action against VIOTR; conditions: 80 g/ha
How it was run: as §2

Cn1nnnc1NC(=O)c1ccc(C(F)(F)F)c(C(=O)N2CCCC2)c1Cl [Example 1-152]
Pre-emergence action against ABUTH (Abutilon theophrasti [1]; 20 g/ha): 100%
Pre-emergence action against ABUTH (Abutilon theophrasti [1]; 80 g/ha): 100%
Pre-emergence action against ABUTH (Abutilon theophrasti [1]; Dosage column 320 g/ha (heading prints 3200 g/ha)): 100%
Pre-emergence action against ALOMY (Alopecurus myosuroides [2]; 20 g/ha): 80%
Pre-emergence action against ALOMY (Alopecurus myosuroides [2]; 80 g/ha): 90%
Pre-emergence action against ALOMY (Alopecurus myosuroides [2]; 320 g/ha): 100%
Pre-emergence action against AMARE (Amaranthus retroflexus [3]; 20 g/ha): 100%
Pre-emergence action against AMARE (Amaranthus retroflexus [3]; 80 g/ha): 100%
Pre-emergence action against AMARE (Amaranthus retroflexus [3]; 320 g/ha): 100%
Pre-emergence action against AVEFA (Avena fatua [4]; 80 g/ha): 100%
Pre-emergence action against AVEFA (Avena fatua [4]; 320 g/ha): 100%
Pre-emergence action against CYPES (Cyperus esculentus [5]; 80 g/ha): 90%
Pre-emergence action against CYPES (Cyperus esculentus [5]; 320 g/ha): 100%
Pre-emergence action against ECHCG (Echinochloa crus-galli [6]): 100%
Pre-emergence action against MATIN (Matricaria inodora [7]; 20 g/ha): 100%
Pre-emergence action against MATIN (Matricaria inodora [7]; 80 g/ha): 100%
Pre-emergence action against MATIN (Matricaria inodora [7]; 320 g/ha): 100%
Pre-emergence action against PHBPU (Pharbitis purpurea [8]): 80%
Pre-emergence action against HORMU (Hordeum murinum; 80 g/ha): 90%
Pre-emergence action against HORMU (Hordeum murinum; 320 g/ha): 100%
Pre-emergence action against LOLRI (Lolium rigidum [9]; 80 g/ha): 80%
Pre-emergence action against LOLRI (Lolium rigidum [9]; 320 g/ha): 100%
Pre-emergence action against POLCO (Polygonum convolvulus [10]; 80 g/ha): 80%
Pre-emergence action against POLCO (Polygonum convolvulus [10]; 320 g/ha): 100%
Pre-emergence action against SETVI (Setaria viridis [11]; 20 g/ha): 100%
Pre-emergence action against SETVI (Setaria viridis [11]; 80 g/ha): 100%
Pre-emergence action against SETVI (Setaria viridis [11]; 320 g/ha): 100%
Pre-emergence action against STEME (Stellaria media [12]; 20 g/ha): 90%
Pre-emergence action against STEME (Stellaria media [12]; 80 g/ha): 100%
Pre-emergence action against STEME (Stellaria media [12]; 320 g/ha): 100%
Pre-emergence action against VERPE (Veronica persica [13]): 90%
Pre-emergence action against VIOTR (Viola tricolor [14]; 80 g/ha): 100%
Pre-emergence action against VIOTR (Viola tricolor [14]; 320 g/ha): 100%
Post-emergence action against ABUTH (Abutilon theophrasti [15]; 5 g/ha): 100%
Post-emergence action against ABUTH (Abutilon theophrasti [15]; 20 g/ha): 100%
Post-emergence action against ABUTH (Abutilon theophrasti [15]; 80 g/ha): 100%
Post-emergence action against ALOMY (Alopecurus myosuroides [16]; 20 g/ha): 80%
Post-emergence action against ALOMY (Alopecurus myosuroides [16]; 80 g/ha): 90%
Post-emergence action against AMARE in % (Amaranthus retroflexus [17]; 5 g/ha): 100%
Post-emergence action against AMARE in % (Amaranthus retroflexus [17]; 20 g/ha): 100%
Post-emergence action against AMARE in % (Amaranthus retroflexus [17]; 80 g/ha): 100%
Post-emergence action against AVEFA in % (Avena fatua [18]; 20 g/ha): 90%
Post-emergence action against AVEFA in % (Avena fatua [18]; 80 g/ha): 100%
Post-emergence action against CYPES in % (Cyperus esculentus [19]): 80%
Post-emergence action against ECHCG in % (Echinochloa crus-galli [20]; 5 g/ha): 80%
Post-emergence action against ECHCG in % (Echinochloa crus-galli [20]; 20 g/ha): 90%
Post-emergence action against ECHCG in % (Echinochloa crus-galli [20]; 80 g/ha): 100%
Post-emergence action against MATIN in % (Matricaria inodora [21]): 90%
Post-emergence action against PHBPU in % (Pharbitis purpurea [22]; 5 g/ha): 80%
Post-emergence action against PHBPU in % (Pharbitis purpurea [22]; 20 g/ha): 90%
Post-emergence action against PHBPU in % (Pharbitis purpurea [22]; 80 g/ha): 90%
Post-emergence action against LOLRI in % (Lolium rigidum [23]; 20 g/ha): 90%
Post-emergence action against LOLRI in % (Lolium rigidum [23]; 80 g/ha): 100%
Post-emergence action against POLCO in % (Polygonum convolvulus [24]; 5 g/ha): 80%
Post-emergence action against POLCO in % (Polygonum convolvulus [24]; 80 g/ha): 80%
Post-emergence action against SETVI in % (Setaria viridis [25]; 5 g/ha): 100%
Post-emergence action against SETVI in % (Setaria viridis [25]; 20 g/ha): 100%
Post-emergence action against SETVI in % (Setaria viridis [25]; 80 g/ha): 100%
Post-emergence action against STEME in % (Stellaria media [26]; 5 g/ha): 90%
Post-emergence action against STEME in % (Stellaria media [26]; 20 g/ha): 90%
Post-emergence action against STEME in % (Stellaria media [26]; 80 g/ha): 100%
Post-emergence action against VERPE in % (Veronica persica [27]; 20 g/ha): 90%
Post-emergence action against VERPE in % (Veronica persica [27]; 80 g/ha): 90%
Post-emergence action against VIOTR in % (Viola tricolor [28]): 90%
